What all share (test): DTP human tumour cell line panel, 48 h
Test [1] has as its system NCI-H460 lung.
Test [2] concerns SNB-75 CNS.
For test [3], the system named is ACHN renal.
The test system of test [4] is OVCAR-4 ovarian.
Test [5] has as its system SF-295 CNS.
The subject of test [6] is RPMI-8226 leukemia.
The test system of test [7] is MALME-3M melanoma.
In test [8] the test system is UO-31 renal.
For test [9], the system named is OVCAR-5 ovarian.
The subject of test [10] is HCC-2998 colon.

Each structure is given as a SMILES string.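 Each compound was tested at five concentrations against cells in 96-well plates for 48 hours. Abbreviation: GI50, concentration required for 50% inhibition of growth. TGI: total growth inhibition.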 A value given as a limit tells only on which side of the number the result lay.

As to `CCC(CC)n1cnc2c(-c3cnc(N)cn3)nc(N3CC4CCC(C3)O4)nc21`, the GI50 in test [1] was 170 nM; in test [2] it was 84.8 nM; in test [3], 324 nM; in [4], 169 nM; in [5], 173 nM; in test [6] it was 102 nM. The GI50 in test [7] was 47.2 nM; in test [8] it was 96.1 nM; in test [9], 374 nM; in test [10], 465 nM. For the same compound, the TGI in test [1] is over 100000 nM; in [2], 1180 nM; in [3], over 100000 nM; in test [4], 3170 nM; in test [5], 1590 nM; in test [6] it was 5750 nM. The TGI in test [7] is 688 nM; in test [9], over 100000 nM; in test [10], over 100000 nM.

Source of the values: PubChem BioAssay (NCI).
